From US11040035B2, “3-oxo-2,6-diphenyl-2,3-dihydropyridazine-4-carboxamides” (BAYER PHARMA AKTIENGESELLSCHAFT, priority 2016, dated 2021)

What was measured:
AHR [1] = target: T1, AHR (Homo sapiens, UniProt P35869); test: In vitro assay 2: agonism in human cell line (transactivation assay)
T1 sequence (P35869 11-848): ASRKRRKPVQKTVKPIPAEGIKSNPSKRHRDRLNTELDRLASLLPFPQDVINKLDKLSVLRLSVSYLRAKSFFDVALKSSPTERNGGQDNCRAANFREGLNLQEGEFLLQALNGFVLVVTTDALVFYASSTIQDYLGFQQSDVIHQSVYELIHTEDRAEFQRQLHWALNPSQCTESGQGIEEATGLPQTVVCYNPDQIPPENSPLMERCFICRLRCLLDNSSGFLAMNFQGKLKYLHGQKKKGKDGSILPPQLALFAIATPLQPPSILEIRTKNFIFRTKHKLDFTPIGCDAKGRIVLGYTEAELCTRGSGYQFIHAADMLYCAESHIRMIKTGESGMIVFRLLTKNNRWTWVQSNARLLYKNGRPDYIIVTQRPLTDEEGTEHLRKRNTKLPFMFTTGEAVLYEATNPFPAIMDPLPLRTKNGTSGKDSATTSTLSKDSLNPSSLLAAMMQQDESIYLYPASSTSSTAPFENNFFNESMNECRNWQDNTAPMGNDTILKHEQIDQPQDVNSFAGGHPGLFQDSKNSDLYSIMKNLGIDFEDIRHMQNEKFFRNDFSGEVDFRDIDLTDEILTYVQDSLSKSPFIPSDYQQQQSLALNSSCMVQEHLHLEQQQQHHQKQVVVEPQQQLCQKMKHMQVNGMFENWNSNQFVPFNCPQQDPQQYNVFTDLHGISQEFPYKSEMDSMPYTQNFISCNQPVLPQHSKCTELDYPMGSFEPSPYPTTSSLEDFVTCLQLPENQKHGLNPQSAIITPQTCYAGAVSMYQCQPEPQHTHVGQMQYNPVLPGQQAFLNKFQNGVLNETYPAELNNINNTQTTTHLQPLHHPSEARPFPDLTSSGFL

AHR [2] = target: T1, AHR; test: In vitro assay 1: antagonism in human cell line (transactivation assay, kynurenic acid prestimulated); settings: Assay 1: AHR-luc Hum Antagonism IC50 [M], 150 μM kynurenic acid, 20 hours, firefly luciferase
[3] = Assay 2: AHR-luc Hum Agonism IC50 [M], no kynurenic acid, 20 hours, firefly luciferase
[4] = read-out: Assay 2: AHR-luc Hum Agonism IC50, no kynurenic acid, 20 hours, firefly luciferase

Row | Compound | IC50 (AHR [1]; [3]) [M] | IC50 (AHR [2]) [M] | IC50 (AHR [1]; [4]) [M]
1 | O=C(NC(CO)CCO)c1cc(-c2ccc(Cl)cc2)nn(-c2cccc(F)c2)c1=O (single isomer, unassigned; (-)) [Example 226, (−)-6-(4-Chlorophenyl)-N-(1,4-dihydroxybutan-2-yl)-2-(3-fluorophenyl)-3-oxo-2,3-dihydropyridazine-4-carboxamide] | – | 1.42e-07 | > 2e-05
2 | CC(C)[C@@H](CO)NC(=O)c1cc(-c2ccc(Cl)c(F)c2)nn(-c2cccc(F)c2)c1=O [Example 285, 6-(4-Chloro-3-fluorophenyl)-2-(3-fluorophenyl)-N-[(2S)-1-hydroxy-3-methylbutan-2-yl]-3-oxo-2,3-dihydropyridazine-4-carboxamide] | > 2e-05 | 9.39e-08 | –
3 | C[C@H](O)[C@H](C)NC(=O)c1cc(-c2ccc(Cl)c(F)c2)nn(-c2cccc(F)c2)c1=O (relative stereo) [Example 290, rel-6-(4-Chloro-3-fluorophenyl)-2-(3-fluorophenyl)-N-[(2S,3S)-3-hydroxybutan-2-yl]-3-oxo-2,3-dihydropyridazine-4-carboxamide] | > 2e-05 | 8.14e-08 | –
4 | O=C(NC(CO)C1CCOC1)c1cc(-c2ccc(OC(F)F)cc2)nn(-c2cccc(F)c2)c1=O (single isomer, unassigned) [Example 148, 6-[4-(Difluoromethoxy)phenyl]-2-(3-fluorophenyl)-N-{(2-hydroxy-1-tetrahydrofuran-3-yl)ethyl}-3-oxo-2,3-dihydropyridazine-4-carboxamide] | – | 5.33e-07 | > 2e-05
5 | O=C(N[C@H]1CC[C@@H]1O)c1cc(-c2ccc(Cl)cc2)nn(-c2cccc(F)c2)c1=O (single isomer, unassigned) [Example 335, (−)-6-(4-chlorophenyl)-2-(3-fluorophenyl)-N-(trans-2-hydroxycyclobutyl)-3-oxo-2,3-dihydropyridazine-4-carboxamide] | > 2e-05 | 4.05e-07 | –
6 | CC(C)OC[C@H](NC(=O)c1cc(-c2ccc(Cl)cc2)nn(-c2cccc(F)c2)c1=O)C(C)(C)O [Example 390, 6-(4-chlorophenyl)-2-(3-fluorophenyl)-N-[(2S)-3-hydroxy-1-isopropoxy-3-methylbutan-2-yl]-3-oxo-2,3-dihydropyridazine-4-carboxamide] | > 2e-05 | 9.4e-07 | –
7 | O=C(NC(CO)C1CCOC1)c1cc(-c2ccc(Cl)c(F)c2)nn(-c2cccc(F)c2)c1=O (single isomer, unassigned) [Example 294, 6-(4-Chloro-3-fluorophenyl)-2-(3-fluorophenyl)-N-[2-hydroxy-1-(tetrahydrofuran-3-yl)ethyl]-3-oxo-2,3-dihydropyridazine-4-carboxamide] | – | 6.17e-07 | > 2e-05

The next lines start with the values.

Row | IC50 (AHR [1]; [3]) [M] | IC50 (AHR [2]) [M] | IC50 (AHR [1]; [4]) [M] | Compound
8 | > 2e-05 | 6.6e-07 | – | O=C(NCC(O)C(F)(F)F)c1cc(-c2ccc(Cl)cc2)nn(-c2cc(Cl)cc(Cl)c2)c1=O (stereo not shown) [Example 311, 6-(4-Chlorophenyl)-2-(3,5-dichlorophenyl)-3-oxo-N-(3,3,3-trifluoro-2-hydroxypropyl)-2,3-dihydropyridazine-4-carboxamide]
9 | > 2e-05 | 1.65e-08 | – | Cc1ccc(-c2cc(C(=O)NCC(O)C(F)(F)F)c(=O)n(-c3cccc(F)c3)n2)cc1 (single isomer, unassigned; enantiomer 1) [Example 5, 2-(3-Fluorophenyl)-6-(4-methylphenyl)-3-oxo-N-(3,3,3-trifluoro-2-hydroxypropyl)-2,3-dihydropyridazine-4-carboxamide, enantiomer 1]
10 | > 2e-05 | 3.13e-08 | – | O=C(NCC(O)C(F)(F)F)c1cc(-c2ccc(C(F)(F)F)cc2)nn(-c2cccc(F)c2)c1=O (single isomer, unassigned; (-)) [Example 243]
11 | – | 2.5e-07 | > 2e-05 | O=C(NC(CO)C1CC1)c1cc(-c2ccc(Cl)cc2)nn(-c2cccc(F)c2)c1=O (single isomer, unassigned; (+)) [Example 195, (+)-6-(4-Chlorophenyl)-N-(1-cyclopropyl-2-hydroxyethyl)-2-(3-fluorophenyl)-3-oxo-2,3-dihydropyridazine-4-carboxamide]
